Source: patent US20140107021A1 (priority 2010, published 2014)
Where two headings read alike, the source gives them in different places. Values belong to the compound of their own block, whether it stands above or below them. Square brackets hold non-standard residues; d marks the D form. Side chains are listed from the residue outwards. Ends that are not written are not given here. Peptide text beside a SMILES is read from it. * marks the point of attachment. Carboxymethyl = O=C(O)C*; CH2CH2COOH = O=C(O)CC*

Key:
[1] = molecular target: T1, glucagon receptor (Homo sapiens, UniProt P47871); assay: glucagon receptor binding; design: expressed in transfected cells; host or cells: HEK293
[2] = molecular target: T1, glucagon receptor; assay: cell-based
Source text: HEK293 cells co-transfected with the receptor and luciferase gene linked to a cAMP responsive element were employed for the bioassay.
All EC50s and IC50s are reported in the following examples in nM, unless indicated otherwise.

[3] = solubility at pH 6-8; type: physicochemical
[4] = Table G, average ±STD of at least three experiments, same values as receptor binding in Table I, read-out: IC50
[5] = IC50(nM) (cAMP, inhibit Glucagon) 0.1 nM, Table J, inhibit 0.1 nM glucagon
[6] = Table J, read-out: IC50(nM) (Receptor binding)
[7] = Table L, read-out: IC50(nM) (Receptor binding)
[8] = read-out: IC50(nM) (cΛMP, inhibit 0.2 mM Glucagon), Table L, inhibit 0.2 mM Glucagon
[9] = Table L, inhibit 0.2 mM Glucagon

T1 sequence (P47871 26-477): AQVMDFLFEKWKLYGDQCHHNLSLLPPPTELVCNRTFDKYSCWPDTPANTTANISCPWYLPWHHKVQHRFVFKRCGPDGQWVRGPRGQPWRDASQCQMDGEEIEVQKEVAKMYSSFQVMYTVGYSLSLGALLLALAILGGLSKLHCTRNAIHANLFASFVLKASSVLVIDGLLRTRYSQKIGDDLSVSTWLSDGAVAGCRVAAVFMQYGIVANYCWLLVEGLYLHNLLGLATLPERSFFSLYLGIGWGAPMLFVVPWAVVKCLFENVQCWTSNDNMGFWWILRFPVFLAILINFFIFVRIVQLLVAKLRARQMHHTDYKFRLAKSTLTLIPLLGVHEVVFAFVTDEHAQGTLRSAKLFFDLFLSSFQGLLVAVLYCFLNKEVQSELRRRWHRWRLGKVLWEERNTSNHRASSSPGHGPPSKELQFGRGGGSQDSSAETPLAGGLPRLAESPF

IC50 [1, 4]: 107 ± 5.37 nM | Kb [2]: 209 nM | cAMP pA2 ([2]; Table I): 6.68 ± 1.05
Compound: CSCC[C@H](NC(=O)[C@H](CC(C)C)NC(=O)[C@H](Cc1c[nH]c2ccccc12)NC(=O)[C@H](CCC(N)=O)NC(=O)[C@@H](NC(=O)[C@H](Cc1ccccc1)NC(=O)[C@H](CC(=O)O)NC(=O)[C@H](CCC(N)=O)NC(=O)[C@H](C)NC(=O)[C@H](CCCNC(=N)N)NC(=O)[C@H](CCCNC(=N)N)NC(=O)[C@H](CO)NC(=O)[C@H](CC(=O)O)NC(=O)[C@H](CC(C)C)NC(=O)[C@H](Cc1ccc(O)cc1)NC(=O)[C@H](CCCCN)NC(=O)[C@H](CO)NC(=O)[C@H](Cc1ccc(O)cc1)NC(=O)[C@H](CSCC(=O)O)NC(=O)[C@H](CO)NC(=O)[C@@H](NC(=O)[C@@H](N)Cc1ccccc1)[C@@H](C)O)C(C)C)C(=O)N[C@@H](CC(N)=O)C(=O)N[C@H](C(N)=O)[C@@H](C)O [[(CSA-1)^9]Glucagon(aa6-29)-NII2, [C^9(SCH2COOH)]Glucagon(aa6-29)-NH2] (H-FTSC(Carboxymethyl)YSKYLDSRRAQDFVQWLMNT-NH2; N-terminus assumed)

IC50 [1, 4]: 146 ± 36.9 nM | Kb [2]: 229 nM | cAMP pA2 ([2]; Table I): 6.64 ± 0.29
Compound: CSCC[C@H](NC(=O)[C@H](CC(C)C)NC(=O)[C@H](Cc1c[nH]c2ccccc12)NC(=O)[C@H](CCC(N)=O)NC(=O)[C@@H](NC(=O)[C@H](Cc1ccccc1)NC(=O)[C@H](CC(=O)O)NC(=O)[C@H](CCC(N)=O)NC(=O)[C@H](C)NC(=O)[C@H](CCCNC(=N)N)NC(=O)[C@H](CCCNC(=N)N)NC(=O)[C@H](CO)NC(=O)[C@H](CC(=O)O)NC(=O)[C@H](CC(C)C)NC(=O)[C@H](Cc1ccc(O)cc1)NC(=O)[C@H](CCCCN)NC(=O)[C@H](CO)NC(=O)[C@H](Cc1ccc(O)cc1)NC(=O)[C@H](CSCCC(=O)O)NC(=O)[C@H](CO)NC(=O)[C@@H](NC(=O)[C@@H](N)Cc1ccccc1)[C@@H](C)O)C(C)C)C(=O)N[C@@H](CC(N)=O)C(=O)N[C@H](C(N)=O)[C@@H](C)O [[(CSA-2)^9]Glucagon(aa6-29)-NH2, [C^9(SCH2CH2COOH)]Glucagon(aa6-29)-NH2] (H-FTSC(CH2CH2COOH)YSKYLDSRRAQDFVQWLMNT-NH2; N-terminus assumed)

Solubility (%, pH 6-8) [3]: 100%
Compound: CSCC[C@H](NC(=O)[C@H](CC(C)C)NC(=O)[C@H](Cc1c[nH]c2ccccc12)NC(=O)[C@H](CCC(N)=O)NC(=O)[C@@H](NC(=O)[C@H](Cc1ccccc1)NC(=O)[C@H](CC(=O)O)NC(=O)[C@H](CCC(N)=O)NC(=O)[C@H](C)NC(=O)[C@H](CCCNC(=N)N)NC(=O)[C@H](CCCNC(=N)N)NC(=O)[C@H](CO)NC(=O)[C@H](CC(=O)O)NC(=O)[C@H](CC(C)C)NC(=O)[C@H](Cc1ccc(O)cc1)NC(=O)[C@H](CCCCN)NC(=O)[C@H](CO)NC(=O)[C@H](Cc1ccc(O)cc1)NC(=O)[C@H](CC(=O)O)NC(=O)[C@H](CO)NC(=O)[C@@H](NC(=O)[C@@H](O)Cc1ccccc1)[C@@H](C)O)C(C)C)C(=O)N[C@@H](CC(=O)O)C(=O)N[C@H](C(N)=O)[C@@H](C)O [[PLA6, D9, D28]Glucagon(aa6-29)-NH2]

Solubility (%, pH 6-8) [3]: 96% | IC50 [2, 5]: 13.2 nM
Compound: CSCC[C@H](NC(=O)[C@H](CC(C)C)NC(=O)[C@H](Cc1c[nH]c2ccccc12)NC(=O)[C@H](CCC(N)=O)NC(=O)[C@@H](NC(=O)[C@H](Cc1ccccc1)NC(=O)[C@H](CC(=O)O)NC(=O)[C@H](CCC(N)=O)NC(=O)[C@H](C)NC(=O)[C@H](CCCNC(=N)N)NC(=O)[C@H](CCCNC(=N)N)NC(=O)[C@H](CO)NC(=O)[C@H](CC(=O)O)NC(=O)[C@H](CC(C)C)NC(=O)[C@H](Cc1ccc(O)cc1)NC(=O)[C@H](CCCCN)NC(=O)[C@H](CO)NC(=O)[C@H](Cc1ccc(O)cc1)NC(=O)[C@H](CC(=O)O)NC(=O)[C@H](CO)NC(=O)[C@@H](NC(=O)[C@@H](O)Cc1ccccc1)[C@@H](C)O)C(C)C)C(=O)N[C@@H](CC(N)=O)C(=O)N[C@H](C(=O)O)[C@@H](C)O [[PLA6, D9]Glucagon(aa6-29)-COOH] (HELM PEPTIDE1{[O=C([C@@H](O)Cc1ccccc1)[*:2]].T.S.D.Y.S.K.Y.L.D.S.R.R.A.Q.D.F.V.Q.W.L.M.N.T}$$$$V2.0)

Solubility (%, pH 6-8) [3]: 11% | IC50 [1, 6]: 13.9 ± 3.22 nM
Compound: CSCC[C@H](NC(=O)[C@H](CC(C)C)NC(=O)[C@H](Cc1c[nH]c2ccccc12)NC(=O)[C@H](CCC(N)=O)NC(=O)[C@@H](NC(=O)[C@H](Cc1ccccc1)NC(=O)[C@H](CC(=O)O)NC(=O)[C@H](CCC(N)=O)NC(=O)[C@H](C)NC(=O)[C@H](CCCNC(=N)N)NC(=O)[C@H](CCCNC(=N)N)NC(=O)[C@H](CO)NC(=O)[C@H](CC(=O)O)NC(=O)[C@H](CC(C)C)NC(=O)[C@H](Cc1ccc(O)cc1)NC(=O)[C@H](CCCCN)NC(=O)[C@H](CO)NC(=O)[C@H](Cc1ccc(O)cc1)NC(=O)[C@H](CC(=O)O)NC(=O)[C@H](CO)NC(=O)[C@@H](NC(=O)[C@@H](O)Cc1ccccc1)[C@@H](C)O)C(C)C)C(=O)N[C@@H](CC(N)=O)C(=O)N[C@H](C(N)=O)[C@@H](C)O [[PLA6, D9]Glucagon(aa6-29)-NH2] (HELM PEPTIDE1{[O=C([C@@H](O)Cc1ccccc1)[*:2]].T.S.D.Y.S.K.Y.L.D.S.R.R.A.Q.D.F.V.Q.W.L.M.N.T.[am]}$$$$V2.0)

Compound: CSCC[C@H](NC(=O)[C@H](CC(C)C)NC(=O)[C@H](Cc1c[nH]c2ccccc12)NC(=O)[C@H](CCC(N)=O)NC(=O)[C@@H](NC(=O)[C@H](Cc1ccccc1)NC(=O)[C@H](CC(=O)O)NC(=O)[C@H](CCC(N)=O)NC(=O)[C@H](C)NC(=O)[C@H](CCCNC(=N)N)NC(=O)[C@H](CCCNC(=N)N)NC(=O)[C@H](CO)NC(=O)[C@H](CC(=O)O)NC(=O)[C@H](CC(C)C)NC(=O)[C@H](Cc1ccc(O)cc1)NC(=O)[C@H](CCCCN)NC(=O)[C@H](CO)NC(=O)[C@H](Cc1ccc(O)cc1)NC(=O)[C@H](CCC(=O)O)NC(=O)[C@H](CO)NC(=O)[C@@H](NC(=O)[C@@H](O)Cc1ccccc1)[C@@H](C)O)C(C)C)C(=O)N[C@@H](CC(N)=O)C(=O)N[C@H](C(=O)NCC(=O)N1CCC[C@H]1C(=O)N[C@@H](CO)C(=O)N[C@@H](CO)C(=O)NCC(=O)N[C@@H](C)C(=O)N1CCC[C@H]1C(=O)N1CCC[C@H]1C(=O)N1CCC[C@H]1C(=O)N[C@@H](CO)C(N)=O)[C@@H](C)O [[PLA6, E9]Glucagon (aa6-29 + CEX)-NH2] (HELM PEPTIDE1{[O=C([C@@H](O)Cc1ccccc1)[*:2]].T.S.E.Y.S.K.Y.L.D.S.R.R.A.Q.D.F.V.Q.W.L.M.N.T.G.P.S.S.G.A.P.P.P.S.[am]}$$$$V2.0)
Solubility (%, pH 6-8) [3]: 16% | IC50 [1, 6]: 40.3 ± 11.3 nM | IC50 [2, 5]: 24.8 nM

IC50 ([1]; Table H, same values as receptor binding in Table I, read-out: IC50): 59.1 ± 18.1 nM | Kb [2]: 69.2 nM | cAMP pA2 ([2]; Table I): 7.16 ± 0.51 | IC50 ([2]; cAMP IC50(nM), Table H): 133 nM
Compound: CSCC[C@H](NC(=O)[C@H](CC(C)C)NC(=O)[C@H](Cc1c[nH]c2ccccc12)NC(=O)[C@H](CCC(N)=O)NC(=O)[C@@H](NC(=O)[C@H](Cc1ccccc1)NC(=O)[C@H](CC(=O)O)NC(=O)[C@H](CCC(N)=O)NC(=O)[C@H](C)NC(=O)[C@H](CCCNC(=N)N)NC(=O)[C@H](CCCNC(=N)N)NC(=O)[C@H](CO)NC(=O)[C@H](CC(=O)O)NC(=O)[C@H](CC(C)C)NC(=O)[C@H](Cc1ccc(O)cc1)NC(=O)[C@H](CCCCN)NC(=O)[C@H](CO)NC(=O)[C@H](Cc1ccc(O)cc1)NC(=O)[C@H](CCS(=O)(=O)O)NC(=O)[C@H](CO)NC(=O)[C@@H](NC(=O)[C@@H](N)Cc1ccccc1)[C@@H](C)O)C(C)C)C(=O)N[C@@H](CC(N)=O)C(=O)N[C@H](C(N)=O)[C@@H](C)O [[hCys^9(SO3H)]Glucagon(aa6-29)-NH2] (HELM PEPTIDE1{F.T.S.[O=C([C@H](CCS(=O)(=O)O)N[*:1])[*:2]].Y.S.K.Y.L.D.S.R.R.A.Q.D.F.V.Q.W.L.M.N.T.[am]}$$$$V2.0)

Compound: FTSEYSKYLDSRRAQDFVQWLMNT-NH2 [[Glu^9]Glucagon(aa6-29)-NH2]
IC50 [1, 4]: 36.4 ± 5.23 nM | Kb [2]: 69.2 nM | cAMP (I/A)50 [2]: 486 | cAMP pA2 [2]: 7.16 ± 0.27

IC50 [1, 7]: 1080 ± 268 nM | IC50 [2, 8]: 2280 nM
Compound: [C5(1.2 kDaPEG), E9]Glucagon(aa5-29)-NII2

IC50 [1, 7]: > 1000 nM | IC50(nM) (cΛMP, inhibit 0.2 mM Glucagon) [2, 9]: no antagonism
Compound: [C8(20 kDaPEG), E9]Glucagon(aa6-29)-NH2 (FTC(PEG 20 kDa)EYSKYLDSRRAQDFVQWLMNT-NH2)

IC50 [1, 7]: > 1000 nM | IC50(nM) (cΛMP, inhibit 0.2 mM Glucagon) [2, 9]: no antagonism
Compound: [E9, C11(20 kDaPEG)]Glucagon(aa6-29)-NH2 (FTSEYC(PEG 20 kDa)KYLDSRRAQDFVQWLMNT-NH2)

IC50 [1, 7]: > 1000 nM | IC50(nM) (cΛMP, inhibit 0.2 mM Glucagon) [2, 9]: no antagonism
Compound: [E9, C24(20 kDaPEG)]Glucagon(aa6-29)-NH2 (FTSEYSKYLDSRRAQDFVC(PEG 20 kDa)WLMNT-NH2; not fully specified (residue 1))

IC50 [1, 7]: > 10000 nM | IC50(nM) (cΛMP, inhibit 0.2 mM Glucagon) [2, 9]: no antagonism
Compound: [K5(CH2CH2S-20 kDaPEG), E9]Glucagon(aa5-29)-NH2 (K([CH2CH2S-PEG 20 kDa])FTSEYSKYLDSRRAQDFVQWLMNT-NH2)

IC50 [1, 7]: > 10000 nM | IC50(nM) (cΛMP, inhibit 0.2 mM Glucagon) [2, 9]: no antagonism
Compound: [Phe6, E9, C24(20 kDaPEG)]Glucagon aa6-29)-NH2 (FTSEYSKYLDSRRAQDFVC(PEG20kDa)WLMNT-NH2)

IC50 [1, 7]: > 10000 nM | IC50 [2, 8]: 14800 nM
Compound: [d-Cys5(20 kDaPEG, E9]Glucagon(aa5-29)-NH2 ([dC](PEG 20 kDa)FTSEYSKYLDSRRAQDFVQWLMNT-NH2)
